Data from ChEMBL document CHEMBL1201862, “PubChem BioAssay data set” (2004).
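Briefly, cells in 96-well plates were exposed to five compound concentrations for 48 h, and endpoints were estimated by linear interpolation. Abbreviation: GI50, concentration required for 50% inhibition of growth.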 The source made the active and inactive calls. Cut-off read from the data, not from the text of the source: active = GI50 up to about 1.1 µM and inactive = higher.

How the values were obtained:
Assay in all cases: inhibition of tumour cell growth, NCI panel, 48 h
[1] = system: K562
[2] = system: SW-620
[3] = system: OVCAR-4
[4] = system: COLO 205
[5] = system: OVCAR-3
[6] = system: LOX IMVI
[7] = system: SN12C
[8] = system: UO-31
[9] = system: A498
[10] = system: HCT-15
[11] = system: A549
[12] = system: ACHN
[13] = system: U-251
[14] = system: MOLT-4
[15] = system: NCI-H460
[16] = system: CCRF-CEM
[17] = system: NCI-H522
[18] = system: SF-539
[19] = system: TK-10
[20] = system: HOP-62

| SMILES | GI50 [1] | GI50 [2] | GI50 [3] | GI50 [4] | GI50 [5] | GI50 [6] | GI50 [7] | GI50 [8] | GI50 [9] | GI50 [10] | GI50 [11] | GI50 [12] | GI50 [13] | GI50 [14] | GI50 [15] | GI50 [16] | GI50 [17] | GI50 [18] | GI50 [19] | GI50 [20] |
| --- | --- | --- | --- | --- | --- | --- | --- | --- | --- | --- | --- | --- | --- | --- | --- | --- | --- | --- | --- | --- |
| C/C(=N\NC(=O)c1ccncc1)c1ccc2ccccc2c1O | 1.84 µM (inactive) | 3.12 µM (inactive) | 0.966 µM (active) | 0.561 µM (active) | 0.29 µM (active) | 1.04 µM (active) | 1.62 µM (inactive) | 0.838 µM (active) | 11.2 µM (inactive) | 0.419 µM | 1.77 µM (inactive) | 0.993 µM (active) | 2.69 µM (inactive) | 0.513 µM (active) | 0.356 µM (active) | 0.232 µM (active) | 0.869 µM (active) | 1.46 µM (inactive) | 4.63 µM (inactive) | 4.37 µM (inactive) |
| O=S(=O)(Nc1ccccc1)c1ccc(-c2c3nc(c(-c4ccc(S(=O)(=O)Nc5ccccc5)cc4)c4ccc([nH]4)c(-c4ccc(S(=O)(=O)Nc5ccccc5)cc4)c4nc(c(-c5ccc(S(=O)(=O)Nc6ccccc6)cc5)c5ccc2[nH]5)C=C4)C=C3)cc1 | > 31.6 µM (inactive) | > 31.6 µM (inactive) | 12.6 µM (inactive) | > 31.6 µM (inactive) | > 10 µM (inactive) | > 10 µM (inactive) | > 31.6 µM (inactive) | > 31.6 µM (inactive) | > 31.6 µM (inactive) | > 31.6 µM | > 31.6 µM (inactive) | 11.1 µM (inactive) | > 31.6 µM (inactive) | > 31.6 µM (inactive) | 11.6 µM (inactive) | > 31.6 µM (inactive) | > 31.6 µM (inactive) | > 31.6 µM (inactive) | > 31.6 µM (inactive) | > 10 µM (inactive) |
| CC(=O)O/C=C(/C=C/OC(C)=O)C(C/C=C(\C)C#CC=C(C)C)OC(C)=O (stereo not given) | 21 µM (inactive) | 42.3 µM (inactive) | 38.4 µM (inactive) | 27.9 µM (inactive) | 24.2 µM (inactive) | 26.1 µM (inactive) | 36.6 µM (inactive) | 58.2 µM (inactive) | > 100 µM (inactive) | 17.7 µM | > 100 µM (inactive) | 61.1 µM (inactive) | 38.5 µM (inactive) | 21.1 µM (inactive) | > 100 µM (inactive) | 26.1 µM (inactive) | 25.2 µM (inactive) | 22.8 µM (inactive) | > 100 µM (inactive) | > 100 µM (inactive) |
| O=C1c2cc3c(cc2CC12Cc1cc4c(cc1C2)CCC4)CCC3 | 27 µM (inactive) | > 100 µM (inactive) | > 100 µM (inactive) | > 100 µM (inactive) | > 100 µM (inactive) | > 100 µM (inactive) | > 100 µM (inactive) | > 100 µM (inactive) | > 100 µM (inactive) | > 100 µM | > 100 µM (inactive) | > 100 µM (inactive) | > 100 µM (inactive) | 49 µM (inactive) | > 100 µM (inactive) | > 100 µM (inactive) | > 100 µM (inactive) | > 100 µM (inactive) | > 100 µM (inactive) | > 100 µM (inactive) |
| C=CCSc1nnc2cc(CN3CCCC3)c(-c3ccc(Cl)cc3)nn12 | 34.7 µM (inactive) | 26.5 µM (inactive) | 20.3 µM (inactive) | 17.6 µM (inactive) | 17.1 µM (inactive) | 20.4 µM (inactive) | 16.8 µM (inactive) | 16 µM (inactive) | 15.9 µM (inactive) | 21.3 µM | 28.1 µM (inactive) | 15.7 µM (inactive) | 17.5 µM (inactive) | 26 µM (inactive) | 17.9 µM (inactive) | 45.1 µM (inactive) | 18.9 µM (inactive) | 18.6 µM (inactive) | 20.7 µM (inactive) | 20.7 µM (inactive) |
| Brc1nc2c3ccccc3ncn2c1Br | 31.3 µM (inactive) | 36.6 µM (inactive) | 16 µM (inactive) | 16.3 µM (inactive) | 0.316 µM (active) | 19 µM (inactive) | 30.1 µM (inactive) | 36.7 µM (inactive) | 43.5 µM (inactive) | 35.3 µM | 38.8 µM (inactive) | 19.6 µM (inactive) | 28.8 µM (inactive) | 25.3 µM (inactive) | 34.2 µM (inactive) | 25.5 µM (inactive) | 18.7 µM (inactive) | 49.9 µM (inactive) | 56.4 µM (inactive) | 44.6 µM (inactive) |
| Cc1cc2c(cc1C(=O)CCC(=O)O)CC1(C2)Cc2cc(C)c(C(=O)CCC(=O)O)cc2C1 | > 100 µM (inactive) | > 100 µM (inactive) | > 100 µM (inactive) | > 100 µM (inactive) | > 100 µM (inactive) | > 100 µM (inactive) | > 100 µM (inactive) | > 100 µM (inactive) | > 100 µM (inactive) | > 100 µM | > 100 µM (inactive) | > 100 µM (inactive) | > 100 µM (inactive) | > 100 µM (inactive) | > 100 µM (inactive) | > 100 µM (inactive) | > 100 µM (inactive) | > 100 µM (inactive) | > 100 µM (inactive) | > 100 µM (inactive) |
